# Test results taken from US8685924B2, “Preventives/remedies for stress urinary incontinence and method of screening the same” (Takeda Pharmaceutical Company Limited, priority 2004, dated 2014).
# Tests used:
# Type in all cases: in vivo, rat
# [1] = test system: urethane-anesthetized female rats; test: Leak point pressure by abdominal wall electrostimulation, rats with nerve to iliococcygeus/pubococcygeus muscle transected on one side (Example 2); settings: for leak point pressure after drug administration / leak point pressure increase / leak point pressure before drug administration: i.v., mean ± SEM; for leak point pressure before drug administration: baseline
# Protocol: SD female rats (body weight 180-350 g) were anesthetized with urethane (Wako Pure Chemical Industries, Ltd.), and the spinal cord was cut at T8-9 level to eliminate the reflex voiding. In addition, the nerve to the iliococcygeus muscle/pubococcygeus muscle on the one side was transected. During operation, halothane (Takeda Pharmaceutical Company Limited) anesthesia was added when necessary. A catheter (PE-90, Clay Adams) was inserted into the bladder and secured with a ligature, and the incised part of each of the abdominal muscle and skin was closed with sutures. The abdominal skin near the diaphragm was incised at two left and right positions to newly expose the abdominal muscle. An Evans Blue dye (Merck) solution was injected into the bladder, and the bladder volume was adjusted to 0.2-0.3 ml. The bladder catheter was connected to a pressure transducer, and the signals of the transducer were sent to a computer via an amplifier (blood pressure amplification unit AP-641G; NIHON KOHDEN) and an analog-to-digital converter (BIOPAC; MP100), and recorded on a hard disc. The data were analyzed on a computer using software (BIOPAC; AcqKnowledge). The exposed abdominal muscle was electrostimulated using an electrostimulator (SEN-3301; NIHON KODEN) and an isolator (SS-202J; NIHON KODEN), and the presence or absence of incontinence from the urethral orifice was observed. The electrostimulation was applied at a voltage of 3-50 V, duration of 0.05-0.5 milisec, and frequency 50 Hz for 1 sec, thereby gradually increasing the intravesical pressure. The peak intravesical pressure during stimulation of the abdominal wall was measured and, of the trials with observed incontinence, the lowest peak intravesical pressure was defined as the leak point pressure. The leak point pressure was compared before and after the duloxetine and midodrine administration. Duloxetine was dissolved in […] (DMA)/polyethylene glycol 400 (PEG400) (1:1), and intravenously administered at 0.5 ml/kg. Midodrine (hydrochloride, Sigma) was dissolved in saline and intravenously administered at 1 ml/kg.
# [2] = test system: urethane-anesthetized female rats; test: Leak point pressure by intravesical pressure-clamp method (Example 6); settings: for leak point pressure after drug administration / leak point pressure before drug administration: i.v., mean ± SEM; for leak point pressure after drug administration: 10 min later; for leak point pressure before drug administration: baseline
# Protocol: SD female rats (body weight 180-350 g) were anesthetized with urethane (Wako Pure Chemical Industries, Ltd.), and the spinal cord was transected at T8-9 level to eliminate the reflex voiding.
# Halothane (Takeda Pharmaceutical Company Limited) anesthesia was added when necessary during operation. After laparotomy, the bladder neck was tied with a suture thread and then a catheter (PE-90, Clay Adams) was inserted into the bladder and secured with a ligature. The other end of the bladder catheter was connected to a pressure transducer and saline storage reservoir (60 ml syringe) via a three-way cock.
# Changes in the intravesical pressure measured by a transducer were input in a computer via an amplifier (blood pressure amplification unit AP-641G; NIHON KODEN) and an analog-to-digital cinverter (MP-100; biopack) and recorded on a hard disc. The intravesical pressure was raised for 90 sec by setting the saline storage reservoir at a given height, and the presence or absence of saline leakage from the urethral orifice was observed. The intravesical pressure was raised every 2.5 cmH2O and, after 90 sec observation period, the intravesical pressure was once returned to 0 cmH2O, after which the next step was performed. The intravesical pressure at which the saline leakage from the urethral orifice was observed was taken as the leak point pressure. The measurement of the leak point pressure was repeated and the average of the final three measures was taken as the value before the drug administration. The drug was intravenously administered, and the leak point pressure was measured again 10 min later. The drug was dissolved in DMA-PEG400 (1:1), and administered at 0.5 ml/kg.
# [3] = test system: urethane-anesthetized female rats; test: Leak point pressure by abdominal wall-electrically stimulating method, serotonin 5-HT receptor agonists (Example 3); settings: for leak point pressure after drug administration / leak point pressure increase / leak point pressure before drug administration: i.v., mean ± SEM; for leak point pressure before drug administration: baseline
# Protocol: (§1) SD female rats (body weight 180-350 g) were anesthetized with urethane (Wako Pure Chemical Industries, Ltd.), and the spinal cord was transected at T8-9 level to eliminate the reflex voiding. In addition, the nerve to the iliococcygeus muscle/pubococcygeus muscle on the one side was transected. During operation, halothane (Takeda Pharmaceutical Company Limited) anesthesia was added when necessary. A catheter (PE-90, Clay Adams) was inserted into the bladder and secured with a ligature, and the incised part of each of the abdominal muscle and skin was closed with sutures. The abdominal skin near the diaphragm was incised at two left and right positions to newly expose the abdominal muscle. An Evans Blue dye (Merck) solution was injected into the bladder, and the bladder volume was adjusted to 0.2-0.3 ml. The bladder catheter was connected to a pressure transducer, and the signals of the transducer were sent to a computer via an amplifier (blood pressure amplification unit AP-641G; NIHON KOHDEN) and an analog-to-digital converter (BIOPAC; MP100), and recorded on a hard disc. The data were analyzed on a computer using software (BIOPAC; AcqKnowledge). The exposed abdominal muscle was electrostimulated using an electrostimulator (SEN-3301; NIHON KODEN) and an isolator (SS-202J; NIHON KODEN), and the presence or absence of incontinence from the meatus urethra was observed. The electrostimulation was applied at a voltage of 2.5-50 V, duration of 0.5 milisec, and frequency 50 Hz for 1 sec, thereby gradually increasing the intravesical pressure. The peak intravesical pressure during stimulation of the abdominal wall was measured and, of the trials with observed incontinence, the lowest peak intravesical pressure was defined as the leak point pressure. Serotonin 5-HT receptor agonist, WAY-161503 (5-HT2C receptor agonist), WAY-163909 (5-HT2C receptor agonist), DOI (5-HT2A/2B/2C receptor agonist), mCPP (5-HT2B/2C receptor partial agonist), eltoprazine (5-HT1A/1B/2C receptor partial agonist), 8-OH-DPAT (5-HT1A receptor agonist), sumatryptan (5-HT1B/1D receptor agonist) and BW723C86 (5-HT2B receptor agonist) were intravenously administered, and the leak point pressure was compared before and after the administration. DOI, mCPP and eltoprazine were dissolved in saline, and other drugs were dissolved in DMA/PEG400 (1:1), and they were intravenously administered at 1 ml/kg and 0.5 mg/kg, respectively. Depending on the experiment, RS-102221 (serotonin 5-HT2C receptor antagonist) or SB221284 (serotonin 5-HT2B/2C receptor antagonist) was intravenously administered 5 min before WAY-161503 or WAY-163909 administration, and an antagonistic effect against the WAY-161503 or WAY-163909-induced increment of the leak point pressure was examined. RS-102221 and SB221284 were both dissolved in DMA/PEG400 (1:1) and intravenously administered at 0.5 ml/kg.
# [4] = test system: urethane-anesthetized female rats; test: Antagonism of the leak point pressure increase by WAY-161503 / WAY-163909, abdominal wall-electrically stimulating method (Example 3); settings: agonist 0.3 mg/kg, i.v., antagonist: solvent, mean ± SEM
# Protocol: as §1
# [5] = test system: urethane-anesthetized female rats; test: Leak point pressure by direct compressing of the bladder (Example 4); settings: for leak point pressure after drug administration / leak point pressure increase / leak point pressure before drug administration: i.v., mean ± SEM; for leak point pressure after drug administration: 20 min later; for leak point pressure before drug administration: baseline
# Protocol: (§2) SD female rats (body weight 180-350 g) were anesthetized with urethane (Wako Pure Chemical Industries, Ltd.), and halothane (Takeda Pharmaceutical Company Limited) anesthesia was added when necessary during operation.
# (§3) The spinal cord was transected at T8-9 level to eliminate the reflex voiding. The lower abdomen was incised in the median line, a catheter for intravesical pressure measurement (PE-90, Clay Adams) was inserted into the bladder and secured with a ligature, and the intravesical pressure was measured via a pressure transducer. Urine was emptized in advance by bilaterally pressing the bladder with two swabs, and a 0.1% Evans blue (Merck) solution (0.4 mL) was injected into the bladder. The bladder was gradually compressed bilaterally with two swabs, and the intravesical pressure upon saline leakage from the urethral orifice was measured and defined as a leak point pressure. The measurement of the leak point pressure was repeated, and the average value of the final five stable measures was taken as the value before drug administration. Thereafter, the drug was intravenously administered, the leak point pressure was measured again 20 min later, and the value after the drug administration was determined. DOI, mCPP and eltoprazine were dissolved in saline, and other drugs were dissolved in DMA/PEG400 (1:1), and intravenously administered at 1 ml/kg and 0.5 mg/kg, respectively. Depending on the experiment, RS-102221 or SB221284 (showing serotonin 5-HT2C receptor antagonist activity) was administered, 5 min later, WAY-161503 or WAY-163909 was administered, leak point pressure was measured 10 min later, and a competitive assay with the action of WAY-161503 or WAY-163909 was performed. RS-102221 and SB221284 were both dissolved in DMA/PEG400 (1:1), and intravenously administered at 0.5 ml/kg.
# [6] = test system: urethane-anesthetized female rats; test: Antagonism of the leak point pressure increase by WAY-161503 / WAY-163909, direct bladder compression method (Example 4); settings: agonist 0.3 mg/kg, i.v., antagonist: solvent, mean ± SEM
# Protocol: as §2, §3
smiles,measurement,setting,value
COc1ccc(OC)c(C(O)CNC(=O)CN)c1 (centres unmarked) [midodrine],leak point pressure after drug administration,[1]; 3 mg/kg,39.5 ± 7.5 cmH2O
same,leak point pressure increase,[1]; 3 mg/kg,3.3 ± 4.0 cmH2O
same,leak point pressure after drug administration,[1]; 10 mg/kg,45.1 ± 3.8 cmH2O
same,leak point pressure increase,[1]; 10 mg/kg,6.1 ± 1.4 cmH2O
same,leak point pressure before drug administration,[1]; dose group 3 mg/kg,36.2 ± 4.8 cmH2O
same,leak point pressure before drug administration,[1]; dose group 10 mg/kg,38.9 ± 4.5 cmH2O
same,"effect on leak point pressure, comparison before and after administration",[1]; intravenously administered,significant increase in the leak point pressure
"C[C@]12CCC(=O)C[C@@H]1CC[C@@H]1[C@@H]2CC[C@]2(C)[C@@H](O)CC[C@@H]12 [DHT, dihydrotestosterone]",leak point pressure after drug administration,[2]; 0.3 mg/kg,35.5 ± 3.9 cmH2O
same,leak point pressure after drug administration,[2]; 1 mg/kg,41.1 ± 3.4 cmH2O
same,leak point pressure after drug administration,[2]; 3 mg/kg,36.9 ± 2.1 cmH2O
same,leak point pressure before drug administration,[2]; dose group 0.3 mg/kg,32.1 ± 3.9 cmH2O
same,leak point pressure before drug administration,[2]; dose group 1 mg/kg,35.7 ± 3.1 cmH2O
same,leak point pressure before drug administration,[2]; dose group 3 mg/kg,30.5 ± 2.2 cmH2O
same,effect on leak point pressure,[2]; intravesical pressure-clamp method,increased the leak point pressure
c1cc2c3c(c1)[C@H]1CCC[C@H]1N3CCNC2 [WAY-163909],leak point pressure after drug administration,[3]; 0.03 mg/kg,43.0 ± 6.3 cmH2O
same,leak point pressure increase,[3]; 0.03 mg/kg,3.5 ± 3.1 cmH2O
same,leak point pressure after drug administration,[3]; 0.1 mg/kg,55.5 ± 1.8 cmH2O
same,leak point pressure increase,[3]; 0.1 mg/kg,11.1 ± 3.0 cmH2O
same,leak point pressure after drug administration,[3]; 0.3 mg/kg,55.9 ± 8.5 cmH2O
same,leak point pressure increase,[3]; 0.3 mg/kg,14.4 ± 3.9 cmH2O
same,leak point pressure after drug administration,[3]; 1 mg/kg,67.1 ± 5.2 cmH2O
same,leak point pressure increase,[3]; 1 mg/kg,24.0 ± 3.1 cmH2O
same,leak point pressure before drug administration,[3]; dose group 0.03 mg/kg,39.5 ± 4.3 cmH2O
same,leak point pressure before drug administration,[3]; dose group 0.1 mg/kg,44.4 ± 4.5 cmH2O
same,leak point pressure before drug administration,[3]; dose group 0.3 mg/kg,41.6 ± 6.0 cmH2O
same,leak point pressure before drug administration,[3]; dose group 1 mg/kg,43.1 ± 3.4 cmH2O
same,dose at which a significant effect on the leak point pressure was afforded,[3]; intravenous administration,not less than 0.1 mg/kg
same,effect on leak point pressure,[3]; intravenous administration,dose-dependently increased the leak point pressure
same,leak point pressure after drug administration,[4],57.6 ± 4.5 cmH2O
same,leak point pressure increase,[4],13.7 ± 2.2 cmH2O
same,leak point pressure before drug administration,[4]; baseline,43.9 ± 4.3 cmH2O
same,leak point pressure after drug administration,[5]; 0.03 mg/kg,73.3 ± 3.9 cmH2O
same,leak point pressure increase,[5]; 0.03 mg/kg,6.6 ± 2.2 cmH2O
same,leak point pressure after drug administration,[5]; 0.1 mg/kg,76.0 ± 2.7 cmH2O
same,leak point pressure increase,[5]; 0.1 mg/kg,11.8 ± 2.0 cmH2O
same,leak point pressure after drug administration,[5]; 0.3 mg/kg,69.9 ± 3.5 cmH2O
same,leak point pressure increase,[5]; 0.3 mg/kg,17.0 ± 1.8 cmH2O
same,leak point pressure after drug administration,[5]; 1 mg/kg,78.7 ± 5.7 cmH2O
same,leak point pressure increase,[5]; 1 mg/kg,20.4 ± 4.0 cmH2O
same,leak point pressure after drug administration,[5]; 3 mg/kg,78.7 ± 4.7 cmH2O
same,leak point pressure increase,[5]; 3 mg/kg,26.0 ± 3.5 cmH2O
same,leak point pressure before drug administration,[5]; dose group 0.03 mg/kg,66.6 ± 5.1 cmH2O
same,leak point pressure before drug administration,[5]; dose group 0.1 mg/kg,64.2 ± 1.3 cmH2O
same,leak point pressure before drug administration,[5]; dose group 0.3 mg/kg,52.9 ± 3.6 cmH2O
same,leak point pressure before drug administration,[5]; dose group 1 mg/kg,58.4 ± 2.3 cmH2O
same,leak point pressure before drug administration,[5]; dose group 3 mg/kg,52.7 ± 1.4 cmH2O
same,effect on leak point pressure,[5]; intravenous administration,dose-dependently increased the leak point pressure
same,leak point pressure after drug administration,[6],77.6 ± 3.8 cmH2O
same,leak point pressure increase,[6],15.0 ± 1.1 cmH2O
same,leak point pressure before drug administration,[6]; baseline,62.6 ± 4.2 cmH2O
